Like-named read-outs stand apart in the source and are kept apart here.
Experiments:
[1] = target: IKKε (Homo sapiens (Human), UniProt Q14164); experiment: IKKε time-resolved fluorescence Lanthascreen kinase inhibition assay; type: biochemical
Procedure: (§1) Compounds of the invention (synthesised as described below) were tested for activity against the IKKε and TBK-1 enzyme as follows:
(§2) Inhibitions studies were performed using a time-resolved fluorescence-based Lanthascreen™ assay. Phosphorylation of a fluorescein-labelled substrate peptide is measured using terbium-labeled phosphospecific antibodies. Terbium is excited at 340 nm and the FRET energy transfer to fluorescein is measured at 495 and 520 nm. The emission ratio between 520 and 495 is a measure of the level of phosphorylation of the substrate by the kinase.
(§3) Kinase inhibition assays (10 μL) were performed at 20° C. in 384-well plate format. Compound IC50 values were determined at the apparent Km for ATP (20 μM) based on a radiometric assay (Invitrogen) using 8 or 10 point curves in duplicate. The final reaction conditions contained 400 nM fluorescein-IkBα substrate ([…]), 20 μM ATP, 2 nM or 8 nM IKKε or TBK1 kinase respectively, and 3% DMSO in kinase assay buffer consisting of 50 mM HEPES (pH 7.5), 10 mM MgCl, 1 mM EGTA, 0.01% Brij-35.
(§4) Compound dilutions were prepared from 10 mM DMSO stocks by dilution into DMSO.
(§5) The kinase phosphorylation assay was initiated by the addition of the kinase and the reaction was allowed to proceed for 1 hr or 2.5 hr for IKKε and TBK-1 kinase respectively. […] The reaction was stopped by the addition of 10 mM EDTA, and phosphorylation was detected after a 1 hr incubation with 1.5 nM terbium-labelled antibody against phosphorylation at Serine 32 on the IkBα[…]peptide, both in TR-FRET dilution buffer (Invitrogen).
(§6) In the data presented for IKKε, <9 μM means having an activity in the range from 300 nM≦9 μM; and <300 nM means having an activity in the range 30 nM≦300 nM; and for the data presented for TBK-1, <3 μM means having an activity in the range 300 nM≦3 μM, and <300 nM means having an activity in the range 30 nM≦300 nM.

[2] = target: Jnk3 (Homo sapiens (Human), UniProt P53779); experiment: Jnk3 radiolabelled P33 ATP assay (Kinase Hotspot Technology); type: biochemical; conditions: for IC50: at the Km for ATP, read-out: Concentration of compounds required for ~ 50% inhibition, Jnk-3
Procedure: (§7) The compounds of examples DMX-1,8,9,14 and 16 were tested for activity against TBK1, IKKβ, Jnk1 and Jnk3 in addition to IKK-ε and TBK-1. TBK-1, IKKβ, Jnk1 and Jnk3 were screened using radiolabelled P^33 ATP using the Kinase Hotspot Technology of Reaction Biology Corp. Screening against Jnk-1 and Jnk-3 was carried out at the Km for ATP. IKK-ε and TBK-1 screening was also carried out as described above at the Km for ATP for these enzymes. […] TBK-1, IKKβ and Jnk1 were screened using radiolabelled P^33 ATP using the Kinase Hotspot Technology of Reaction Biology Corp. IKK-ε and TBK-1 screening was also carried out as described above at the Km for ATP for these enzymes.

[3] = target: Jnk1 (Homo sapiens (Human), UniProt P45983); experiment: Jnk1 radiolabelled P33 ATP assay (Kinase Hotspot Technology); type: biochemical; conditions: for IC50: read-out: Concentration of compounds required for ~ 50% inhibition, Jnk-1; for inhibition at 1 µM: single point at the concentration (1000 nM), read-out: Jnk-1 percentage inhibition (in brackets)
Procedure: as §7

[4] = target: TBK-1 (Homo sapiens (Human), UniProt Q9UHD2); experiment: biochemical
Procedure: as §1, §2, §3, §4, §5, §6

[5] = target: IKKβ (Homo sapiens (Human), UniProt O14920); experiment: IKKβ radiolabelled P33 ATP assay (Kinase Hotspot Technology); type: biochemical; conditions: for inhibition at 1 µM: read-out: IKK-β percentage inhibition (in brackets); for IC50: single point, read-out: Concentration of compounds required for ~ 50% inhibition, IKK-β
Procedure: as §7

[6] = 20 μM ATP (apparent Km), 2 nM kinase, 1 hr, values are activity bands, read-out: Inhibition of IKKε IC50
[7] = at the Km for ATP, read-out: Concentration of compounds required for ~ 50% inhibition, IKK-ε
[8] = 20 μM ATP (apparent Km), 8 nM kinase, 2.5 hr, values are activity bands, read-out: Inhibition of TBK-1 IC50
[9] = at the Km for ATP, read-out: Concentration of compounds required for ~ 50% inhibition, TBK-1
[10] = single point at the concentration (1000 nM), 1 μM ATP
[11] = single point at the concentration (1000 nM), 10 μM ATP

Sequence of IKKε (Q14164 whole entry): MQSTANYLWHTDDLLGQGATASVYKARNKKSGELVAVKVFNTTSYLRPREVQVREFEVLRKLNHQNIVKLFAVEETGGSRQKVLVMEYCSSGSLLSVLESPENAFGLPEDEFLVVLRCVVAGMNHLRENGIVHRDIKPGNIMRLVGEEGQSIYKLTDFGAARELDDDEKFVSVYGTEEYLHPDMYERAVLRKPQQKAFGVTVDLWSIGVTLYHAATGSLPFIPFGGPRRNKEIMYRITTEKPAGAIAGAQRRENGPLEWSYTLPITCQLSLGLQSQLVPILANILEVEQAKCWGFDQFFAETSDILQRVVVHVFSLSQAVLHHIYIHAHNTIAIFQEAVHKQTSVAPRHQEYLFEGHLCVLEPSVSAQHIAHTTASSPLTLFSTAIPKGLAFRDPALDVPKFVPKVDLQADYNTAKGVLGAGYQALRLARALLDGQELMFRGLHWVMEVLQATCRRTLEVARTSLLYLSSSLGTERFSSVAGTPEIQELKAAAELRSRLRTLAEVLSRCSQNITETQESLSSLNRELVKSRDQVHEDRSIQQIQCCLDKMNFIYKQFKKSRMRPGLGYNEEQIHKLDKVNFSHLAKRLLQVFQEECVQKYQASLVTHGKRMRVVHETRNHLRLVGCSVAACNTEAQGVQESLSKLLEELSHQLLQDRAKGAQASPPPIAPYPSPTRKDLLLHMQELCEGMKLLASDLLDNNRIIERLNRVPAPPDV
Sequence of Jnk1 (P45983 whole entry): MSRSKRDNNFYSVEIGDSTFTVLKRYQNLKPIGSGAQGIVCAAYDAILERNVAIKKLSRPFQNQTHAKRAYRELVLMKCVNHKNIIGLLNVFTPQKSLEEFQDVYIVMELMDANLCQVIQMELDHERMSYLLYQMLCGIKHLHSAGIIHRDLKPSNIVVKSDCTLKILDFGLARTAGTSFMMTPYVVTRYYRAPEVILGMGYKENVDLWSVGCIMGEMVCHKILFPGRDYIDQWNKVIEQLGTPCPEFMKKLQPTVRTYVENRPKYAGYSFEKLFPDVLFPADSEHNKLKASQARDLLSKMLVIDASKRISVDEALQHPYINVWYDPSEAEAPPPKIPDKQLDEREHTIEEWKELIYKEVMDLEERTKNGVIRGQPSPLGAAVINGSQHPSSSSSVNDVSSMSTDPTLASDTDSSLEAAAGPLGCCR
Sequence of Jnk3 (P53779 whole entry): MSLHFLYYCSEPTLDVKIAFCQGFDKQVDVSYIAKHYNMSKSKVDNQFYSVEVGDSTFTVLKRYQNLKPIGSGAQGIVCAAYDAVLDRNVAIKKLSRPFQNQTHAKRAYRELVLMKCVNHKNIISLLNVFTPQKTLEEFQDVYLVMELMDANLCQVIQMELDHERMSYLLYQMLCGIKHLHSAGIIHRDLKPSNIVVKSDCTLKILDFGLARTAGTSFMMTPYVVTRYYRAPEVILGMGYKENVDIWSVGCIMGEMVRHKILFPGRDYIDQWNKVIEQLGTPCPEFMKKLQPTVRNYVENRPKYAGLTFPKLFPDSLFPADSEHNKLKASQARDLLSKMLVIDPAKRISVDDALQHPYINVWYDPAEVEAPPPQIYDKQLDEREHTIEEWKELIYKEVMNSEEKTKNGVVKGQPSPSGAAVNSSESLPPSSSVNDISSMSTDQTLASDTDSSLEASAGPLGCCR
Sequence of IKKβ (O14920 whole entry): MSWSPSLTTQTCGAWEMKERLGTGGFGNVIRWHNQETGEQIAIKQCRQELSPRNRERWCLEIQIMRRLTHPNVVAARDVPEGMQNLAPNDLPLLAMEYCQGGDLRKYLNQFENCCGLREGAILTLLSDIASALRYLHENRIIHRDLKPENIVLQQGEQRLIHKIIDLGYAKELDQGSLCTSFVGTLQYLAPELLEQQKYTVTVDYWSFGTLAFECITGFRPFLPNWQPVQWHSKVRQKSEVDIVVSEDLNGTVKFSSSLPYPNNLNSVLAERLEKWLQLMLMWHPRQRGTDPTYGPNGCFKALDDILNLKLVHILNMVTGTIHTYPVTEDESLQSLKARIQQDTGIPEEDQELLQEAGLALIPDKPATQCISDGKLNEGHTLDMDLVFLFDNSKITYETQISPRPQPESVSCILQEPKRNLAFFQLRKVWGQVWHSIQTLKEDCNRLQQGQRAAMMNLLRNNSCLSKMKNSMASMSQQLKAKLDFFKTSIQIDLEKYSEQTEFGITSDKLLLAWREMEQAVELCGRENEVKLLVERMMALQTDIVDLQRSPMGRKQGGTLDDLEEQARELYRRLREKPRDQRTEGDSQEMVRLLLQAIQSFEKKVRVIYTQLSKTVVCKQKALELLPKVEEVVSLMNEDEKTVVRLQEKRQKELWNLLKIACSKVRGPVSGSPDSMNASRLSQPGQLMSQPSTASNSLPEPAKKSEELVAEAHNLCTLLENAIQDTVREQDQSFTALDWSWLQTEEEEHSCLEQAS
Sequence of TBK-1 (Q9UHD2 whole entry): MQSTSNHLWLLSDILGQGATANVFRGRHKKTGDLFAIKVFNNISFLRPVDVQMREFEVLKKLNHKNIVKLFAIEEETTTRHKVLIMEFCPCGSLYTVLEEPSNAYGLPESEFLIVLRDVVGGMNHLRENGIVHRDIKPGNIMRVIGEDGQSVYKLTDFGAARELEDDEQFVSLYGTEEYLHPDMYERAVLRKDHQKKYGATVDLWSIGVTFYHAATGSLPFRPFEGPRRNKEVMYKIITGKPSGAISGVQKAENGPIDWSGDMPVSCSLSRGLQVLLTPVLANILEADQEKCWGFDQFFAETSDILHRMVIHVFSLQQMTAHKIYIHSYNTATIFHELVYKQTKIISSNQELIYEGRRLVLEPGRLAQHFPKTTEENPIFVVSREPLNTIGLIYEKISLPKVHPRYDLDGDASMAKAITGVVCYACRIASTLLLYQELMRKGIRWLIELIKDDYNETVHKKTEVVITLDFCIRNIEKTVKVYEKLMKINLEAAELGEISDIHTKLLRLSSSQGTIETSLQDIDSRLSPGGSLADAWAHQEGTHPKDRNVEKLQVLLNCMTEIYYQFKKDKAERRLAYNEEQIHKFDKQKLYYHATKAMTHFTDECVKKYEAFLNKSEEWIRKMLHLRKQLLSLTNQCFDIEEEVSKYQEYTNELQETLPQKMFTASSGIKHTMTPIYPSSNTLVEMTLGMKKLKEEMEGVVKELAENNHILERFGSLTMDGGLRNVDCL

## CC(=O)Nc1ccc(Nc2nccc(-c3ccc(N4CCCC4)c(C#N)c3)n2)cc1 [DMX-9]
[1]; [6]
  IC50: < 30 nM
[1]; [7]
  IC50: 3 nM
[2]
  IC50: 10000 nM
[2]; at the printed concentration (10000 nM), Km for ATP, read-out: Jnk-3 percentage inhibition (in brackets)
  inhibition at 10 µM: 51%
[3]; at the Km for ATP
  IC50: 262 nM
[4]; [8]
  IC50: < 30 nM
[4]; [9]
  IC50: 3 nM
[5]; [10]
  inhibition at 1 µM: 34%
[5]; 1 μM ATP
  IC50: 1000 nM

## N#Cc1cc(-c2ccnc(Nc3ccc(N4CCOCC4)nc3)n2)ccc1N1CCCC1 [DMX-16]
[1]; [6]
  IC50: < 30 nM
[1]; [7]
  IC50: 2 nM
[2]
  IC50: > 10000 nM
[3]; at the Km for ATP
  IC50: 222 nM
[4]; [8]
  IC50: < 30 nM
[4]; [9]
  IC50: 1 nM
[5]; [10]
  inhibition at 1 µM: 43%
[5]; 1 μM ATP
  IC50: 1000 nM

## CN(C)CCNc1ccc(Nc2nccc(-c3ccc(N4CC[C@H](F)C4)c(C#N)c3)n2)cn1 [DMX-69]
[1]; [6]
  IC50: < 30 nM
[1]; [7]
  IC50: 4 nM
[3]; 10 μM ATP
  inhibition at 1 µM: 43%
[3]; single point, 10 μM ATP
  IC50: 1000 nM
[4]; [8]
  IC50: < 30 nM
[4]; [9]
  IC50: 4 nM
[5]; [11]
  inhibition at 1 µM: 54%
[5]; 10 μM ATP
  IC50: 1000 nM

## Cn1cc(Nc2nccc(-c3ccc(N4CCCC4)c(C#N)c3)n2)cn1 [DMX-56]
[1]; [6]
  IC50: < 30 nM
[1]; [7]
  IC50: 8 nM
[3]; 10 μM ATP
  inhibition at 1 µM: 21%
[3]; single point, 10 μM ATP
  IC50: > 1000 nM
[4]; [8]
  IC50: < 30 nM
[4]; [9]
  IC50: 3 nM
[5]; [11]
  inhibition at 1 µM: 56%
[5]; 10 μM ATP
  IC50: 1000 nM

## N#Cc1cc(-c2ccnc(Nc3ccc(C(N)=O)cc3)n2)ccc1N1CCCC1 [DMX-8]
[1]; [6]
  IC50: < 30 nM
[1]; [7]
  IC50: 3 nM
[2]
  IC50: > 10000 nM
[3]; at the Km for ATP
  IC50: 354 nM
[4]; [8]
  IC50: < 30 nM
[4]; [9]
  IC50: 3 nM
[5]; [10]
  inhibition at 1 µM: 50%
[5]; 1 μM ATP
  IC50: 1000 nM

## N#Cc1cc(-c2ccnc(Nc3cccc(C(N)=O)c3)n2)ccc1N1CCCC1 [DMX-1, 3-[4-(3-cyano-4-pyrrolidin-1-yl-phenyl)-pyrimidin-2-ylamino]-benzamide]
[1]; [6]
  IC50: < 30 nM
[1]; [7]
  IC50: 2 nM
[2]
  IC50: > 10000 nM
[3]; at the Km for ATP
  IC50: 254 nM
[4]; [8]
  IC50: < 30 nM
[4]; [9]
  IC50: 4 nM
[5]
  inhibition at 1 µM: 48%
[5]; 1 μM ATP
  IC50: 1000 nM

## CN1CCN(c2ccc(Nc3nccc(-c4ccc(N5CCCC5)c(C#N)c4)n3)cn2)CC1 [DMX-19]
[1]; [6]
  IC50: < 30 nM
[4]; [8]
  IC50: < 30 nM

## N#Cc1cc(-c2ccnc(Nc3ccc4c(c3)NC(=O)CC4)n2)ccc1N1CCCC1 [DMX-17]
[1]; [6]
  IC50: < 30 nM
[4]; [8]
  IC50: < 30 nM

## CC(=O)Nc1ccc(Nc2nccc(-c3ccc(N4CC(O)C4)c(C#N)c3)n2)cn1 [DMX-66]
[1]; [6]
  IC50: < 30 nM
[1]; [7]
  IC50: 21 nM
[3]; 10 μM ATP
  inhibition at 1 µM: 52%
[3]; single point, 10 μM ATP
  IC50: 1000 nM
[4]; [8]
  IC50: < 30 nM
[4]; [9]
  IC50: 24 nM
[5]; [11]
  inhibition at 1 µM: 43%
[5]; 10 μM ATP
  IC50: 1000 nM

## N#Cc1cc(-c2ccnc(Nc3cccc(NC(=O)N4CCCC4)c3)n2)ccc1N1CCCC1 [DMX-22, Pyrrolidine-1-carboxylic acid {3-[4-(3-cyano-4-pyrrolidin-1-yl-phenyl)-pyrimidin-2-ylamino]-phenyl}-amide]
[1]; [6]
  IC50: < 30 nM
[4]; [8]
  IC50: < 30 nM

## N#Cc1cc(-c2ccnc(Nc3ccc4c(c3)CC(=O)N4)n2)ccc1N1CCCC1 [DMX-14]
[1]; [6]
  IC50: < 30 nM
[1]; [7]
  IC50: 3 nM
[2]
  IC50: > 10000 nM
[3]; at the Km for ATP
  IC50: 201 nM
[4]; [8]
  IC50: < 30 nM
[4]; [9]
  IC50: 2 nM
[5]; [10]
  inhibition at 1 µM: 45%
[5]; 1 μM ATP
  IC50: 1000 nM

— patent US8962609B2, “Pyrimidine compounds as inhibitors of protein kinases IKK epsilon and/or TBK-1, processes for their preparation, and pharmaceutical compositions containing them” (Domainex Limited, priority 2010, dated 2015)
